Laboratory results taken from ChEMBL document CHEMBL1201862, “PubChem BioAssay data set” (2004).
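A five-concentration, 48-hour dose response in 96-well plates underlies each endpoint, interpolated linearly between surrounding concentrations. GI50 marks 50% less growth.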 Active and inactive are the calls of the source. Rule as the data show it: active = GI50 up to about 1.1 µM and inactive = higher.

What was measured:
Experiment in all cases: NCI anticancer screen, dose series, 48 h
HOP-92 = tested on: HOP-92
A498 = tested on: A498
TK-10 = tested on: TK-10
HCT-15 = tested on: HCT-15
HT-29 = tested on: HT-29
CCRF-CEM = tested on: CCRF-CEM
IGROV-1 = tested on: IGROV-1
SK-MEL-5 = tested on: SK-MEL-5
SW-620 = tested on: SW-620
HL-60 = tested on: HL-60
786-0 = tested on: 786-0
SR = tested on: SR
PC-3 = tested on: PC-3
ACHN = tested on: ACHN
SK-MEL-2 = tested on: SK-MEL-2
SF-295 = tested on: SF-295
RPMI-8226 = tested on: RPMI-8226
SF-268 = tested on: SF-268
SF-539 = tested on: SF-539
SNB-19 = tested on: SNB-19
HOP-62 = tested on: HOP-62
CAKI-1 = tested on: CAKI-1
RXF 393 = tested on: RXF 393
M14 = tested on: M14
U-251 = tested on: U-251
Hs-578T = tested on: Hs-578T
NCI/ADR-RES = tested on: NCI/ADR-RES
NCI-H23 = tested on: NCI-H23
HCT-116 = tested on: HCT-116
COLO 205 = tested on: COLO 205
SNB-75 = tested on: SNB-75
EKVX = tested on: EKVX
UACC-62 = tested on: UACC-62
UO-31 = tested on: UO-31
NCI-H226 = tested on: NCI-H226
K562 = tested on: K562
HCC 2998 = tested on: HCC 2998
MOLT-4 = tested on: MOLT-4
OVCAR-4 = tested on: OVCAR-4
SK-OV-3 = tested on: SK-OV-3
LOX IMVI = tested on: LOX IMVI
KM12 = tested on: KM12
OVCAR-8 = tested on: OVCAR-8
SK-MEL-28 = tested on: SK-MEL-28
MDA-MB-435 = tested on: MDA-MB-435
MCF7 = tested on: MCF7
BT-549 = tested on: BT-549
UACC-257 = tested on: UACC-257
MDA-MB-231 = tested on: MDA-MB-231
OVCAR-5 = tested on: OVCAR-5
T47D = tested on: T47D
OVCAR-3 = tested on: OVCAR-3
A549 = tested on: A549
NCI-H460 = tested on: NCI-H460
Malme-3M = tested on: Malme-3M
NCI-H522 = tested on: NCI-H522
SN12C = tested on: SN12C
DU-145 = tested on: DU-145

SMILES: Cc1nc(=O)n2c(c1C(=O)Nc1ccc(Cl)cc1)NCC2
- GI50 (HOP-92): > 79.4 µM (inactive)
- GI50 (A498): > 72.8 µM (inactive)

SMILES: Cc1c(/C=N/NC(=S)Nc2ccc([N+](=O)[O-])cc2)c(=O)n(-c2ccccc2)n1C
- GI50 (TK-10): 11.8 µM (inactive)
- GI50 (HCT-15): 3.08 µM
- GI50 (HT-29): 12.9 µM (inactive)
- GI50 (CCRF-CEM): 7.29 µM (inactive)
- GI50 (IGROV-1): 12.5 µM (inactive)
- GI50 (SK-MEL-5): 33.8 µM (inactive)
- GI50 (SW-620): 25.6 µM (inactive)
- GI50 (HL-60): 35.2 µM (inactive)
- GI50 (786-0): 14.3 µM (inactive)
- GI50 (SR): 17.4 µM (inactive)
- GI50 (PC-3): 19.1 µM (inactive)
- GI50 (ACHN): 11.5 µM (inactive)
- GI50 (SK-MEL-2): 15.5 µM (inactive)
- GI50 (SF-295): 8.53 µM (inactive)
- GI50 (RPMI-8226): 48.5 µM (inactive)
- GI50 (SF-268): 13.5 µM (inactive)
- GI50 (SF-539): 16.4 µM (inactive)
- GI50 (SNB-19): 16 µM (inactive)
- GI50 (HOP-62): 11.6 µM (inactive)
- GI50 (CAKI-1): 6.85 µM (inactive)
- GI50 (RXF 393): 12.4 µM (inactive)
- GI50 (M14): 11.2 µM (inactive)
- GI50 (U-251): 15.6 µM (inactive)
- GI50 (Hs-578T): 15.8 µM (inactive)
- GI50 (NCI/ADR-RES): 9.66 µM (inactive)
- GI50 (NCI-H23): 17.9 µM (inactive)
- GI50 (HCT-116): 18.6 µM (inactive)
- GI50 (COLO 205): 50.4 µM (inactive)
- GI50 (HOP-92): 11.8 µM (inactive)
- GI50 (SNB-75): 13.3 µM (inactive)
- GI50 (EKVX): 10.1 µM (inactive)
- GI50 (UACC-62): 17.6 µM (inactive)
- GI50 (UO-31): 11.4 µM (inactive)
- GI50 (NCI-H226): 10.8 µM (inactive)
- GI50 (K562): 47.1 µM (inactive)
- GI50 (HCC 2998): 42.3 µM (inactive)
- GI50 (MOLT-4): 9.48 µM (inactive)
- GI50 (A498): 10.9 µM (inactive)
- GI50 (OVCAR-4): 14.6 µM (inactive)
- GI50 (SK-OV-3): 13.5 µM (inactive)
- GI50 (LOX IMVI): 15.2 µM (inactive)
- GI50 (KM12): 13.1 µM (inactive)
- GI50 (OVCAR-8): 13.6 µM (inactive)
- GI50 (SK-MEL-28): > 100 µM (inactive)
- GI50 (MDA-MB-435): > 100 µM (inactive)
- GI50 (MCF7): 20 µM (inactive)
- GI50 (BT-549): 15.7 µM (inactive)
- GI50 (UACC-257): 30.9 µM (inactive)
- GI50 (MDA-MB-231): 20.7 µM (inactive)

SMILES: CC(C)=NOC(=O)Nc1cccc2c1OCO2
- GI50 (TK-10): > 100 µM (inactive)
- GI50 (HCT-15): > 100 µM
- GI50 (HT-29): > 100 µM (inactive)
- GI50 (IGROV-1): > 100 µM (inactive)
- GI50 (SK-MEL-5): > 100 µM (inactive)
- GI50 (SW-620): > 100 µM (inactive)
- GI50 (786-0): > 100 µM (inactive)
- GI50 (PC-3): > 100 µM (inactive)
- GI50 (ACHN): 80.9 µM (inactive)
- GI50 (OVCAR-5): > 100 µM (inactive)
- GI50 (SK-MEL-2): > 100 µM (inactive)
- GI50 (SF-295): > 100 µM (inactive)
- GI50 (RPMI-8226): > 100 µM (inactive)
- GI50 (SF-268): > 100 µM (inactive)
- GI50 (SF-539): > 100 µM (inactive)
- GI50 (SNB-19): > 100 µM (inactive)
- GI50 (HOP-62): > 100 µM (inactive)
- GI50 (CAKI-1): > 100 µM (inactive)
- GI50 (RXF 393): > 100 µM (inactive)
- GI50 (M14): > 100 µM (inactive)
- GI50 (U-251): > 100 µM (inactive)
- GI50 (Hs-578T): 28.8 µM (inactive)
- GI50 (NCI/ADR-RES): > 100 µM (inactive)
- GI50 (NCI-H23): > 100 µM (inactive)
- GI50 (HCT-116): > 100 µM (inactive)
- GI50 (COLO 205): > 100 µM (inactive)
- GI50 (HOP-92): > 100 µM (inactive)
- GI50 (SNB-75): > 100 µM (inactive)
- GI50 (EKVX): > 100 µM (inactive)
- GI50 (UACC-62): 32.5 µM (inactive)
- GI50 (UO-31): > 100 µM (inactive)
- GI50 (NCI-H226): > 100 µM (inactive)
- GI50 (T47D): > 100 µM (inactive)
- GI50 (OVCAR-3): > 100 µM (inactive)
- GI50 (HCC 2998): > 100 µM (inactive)
- GI50 (A549): > 100 µM (inactive)
- GI50 (MOLT-4): > 100 µM (inactive)
- GI50 (A498): > 100 µM (inactive)
- GI50 (OVCAR-4): > 100 µM (inactive)
- GI50 (SK-OV-3): > 100 µM (inactive)
- GI50 (NCI-H460): > 100 µM (inactive)
- GI50 (LOX IMVI): > 100 µM (inactive)
- GI50 (Malme-3M): > 100 µM (inactive)
- GI50 (KM12): 71.1 µM (inactive)
- GI50 (NCI-H522): > 100 µM (inactive)
- GI50 (OVCAR-8): > 100 µM (inactive)
- GI50 (SN12C): > 100 µM (inactive)
- GI50 (SK-MEL-28): > 100 µM (inactive)
- GI50 (MDA-MB-435): > 100 µM (inactive)
- GI50 (MCF7): > 100 µM (inactive)
- GI50 (UACC-257): > 100 µM (inactive)
- GI50 (DU-145): > 100 µM (inactive)
- GI50 (MDA-MB-231): > 100 µM (inactive)
